Values of other authors in US11857566B2, “Sulfonated polystyrene derivative for use in the treatment and/or prophylaxis of cat flu” (UNIWERSYTET JAGIELLONSKI, priority 2018, dated 2024).

Assays:
[1] = in vivo

With `Nc1nc2c(ncn2COCCO)c(=O)[nH]1` [acyclovir] as the compound, how does the activity in cats (FHV; compared with HSV-1 in humans) read?
Its activity in cats is “did not show equally high activity”.

What about the bioavailability in cats (in vivo) of the same compound?
Its bioavailability in cats is “low”.

For `CC(=O)OCC(CCn1cnc2cnc(N)nc21)COC(C)=O` [famciclovir], which “safety in treatment and prophylaxis of FHV infection in cats” value [1] is on record?
The value was “has been shown to be safe”.

Which “concentration of PCV in cats” value (after famciclovir) does the source give for `Nc1nc2c(ncn2CCC(CO)CO)c(=O)[nH]1` [PCV, penciclovir] here?
Its value is “much lower than expected”.

Which results are given for `CC(C)[C@H](N)C(=O)OCCOCn1cnc2c(=O)[nH]c(N)nc21` [VCV, Valaciclovir]?
adverse effects in cats [1]: many adverse effects, such as bone marrow suppression or liver and kidney necrosis leading to animal death; symptoms of the disease in cats who took the drug (FHV; in vivo): did not improve symptoms of the disease

For `[Cl-].[Li+]` [lithium chloride], which “in vitro antiviral activity against FCV” value (FCV) is on record?
The value was “very high in vitro antiviral activity”.

With `NC(=O)c1ncn([C@@H]2O[C@H](CO)[C@@H](O)[C@H]2O)n1` [ribavirin] as the compound, how does the “in vitro antiviral activity against FCV” value (FCV) read?
The value was “inhibits FCV infection in vitro”.

For `OC(c1cc(C(F)(F)F)nc2c(C(F)(F)F)cccc12)C1CCCCN1` (stereo not drawn) [mefloquine], which “in vitro antiviral activity against FCV” value (FCV) is on record?
The value was “very high in vitro antiviral activity”.
